Experimental data reported in patent publication EP0801063B1, “Thiazolidinedione derivatives having antidiabetic, hypolipidaemic, antihypertensive properties, process for their preparation and pharmaceutical compositions containing them” (Dr. Reddy's Laboratories Ltd., priority 1996, dated 1997).

Tested on: C57BL/KsJ-db/db mice
Experiment: Blood sugar and triglyceride lowering in db/db mice (in vivo test)
Settings: male C57BL/KsJ-db/db mice, 200 mg / kg oral gavage daily for 10 days; for Maximum reduction in RBS level in a 9 days treatment (%): random blood sugar in plasma, glucose oxidase method, relative to vehicle control
Procedure: Male C57BL/KsJ-db/db mice of 6 weeks age procured from the Jackson Laboratory, USA were used in the experiment. The mice were provided with standard pellets made by National Institute of Nutrition, Hyderabad, India and ad libitum water. The mice of 8 to 14 weeks age, having body weight 40 to 55 grams or more were used for testing.
The random blood sugar (RBS) values were measured by withdrawing blood (20 ul) through orbital sinus, using heparinised capillary, centrifuging the blood to obtain plasma and measuring the glucose level in the plasma by the glucose oxidase method using Stangen glucose-kit. The triglyceride levels in plasma were measured by glycerol 3 PO4 oxidase / peroxidase enzyme method using Stangen kit. Four mice in a group having 300 mg / dl or more of the blood sugar level were used for the test.
The test compounds were suspended in 2.0 % gum acacia and administered to test group at a dose of 200 mg / kg, through oral gavage daily for 10 days. The control group received the vehicle (Gum acacia 2 % 10 ml / kg). The random blood sugar levels and triglyceride levels were measured at diffirent time intervals before and after administration of test compounds. Troglitazone, (200 mg / kg daily dose) was used as a standard compound in the protocol.
The ability of reducing blood sugar level was determined as described below. The mean blood sugar values on zero day before administering the control vehicle (ZC) and treated group (TC) and the means of blood sugar values of the vehicle treated control on 3rd, 6th and 9th day and test compound treated group day control (DC) and day treated (DT).
The blood sugar lowering effect of test compound is calculated according to the following formula : Blood sugar lowering effect (%) = 1 -(DT/TC)/(DC/ZC)X 100 [formula]
The blood triglyceride (TG) lowering activity was calculated as percent reduction on the 9th day as compared to the control animal values.

Compound | Triglyceride lowering (%) (plasma triglyceride, percent reduction on the 9th day compared to control animals) | Maximum reduction in RBS level in a 9 days treatment (%)
Cc1c(C)c2c(c(C)c1O)CCC(C)(CN(C)CCOc1ccc(C=C3SC(=O)NC3=O)cc1)O2 (stereo not drawn) [Example 12, 5-[4-[2-[N-(6-Hydroxy-2,5,7,8-tetramethylchroman-2-ylmethyl)-N-methylamino]ethoxy]phenylmethylene]thiazolidine-2,4-dione] | 70 | 43
Cc1c(C)c2c(c(C)c1O)CCC(C)(COc1ccc(CC3SC(=O)NC3=O)cc1)O2 (stereo not drawn) [Troglitazone, reference compound] |  | 26
